According to patent US9629826B2, “CAI-based systems and methods for the localized treatment of uveitis” (Gen Pharma Holdings, LLC., priority 2014, dated 2017):
Entries after “also recorded” stand apart in the source; their conditions may differ.

Assays:
[1] = cited from earlier work
[2] = systemic CAI; cited from earlier work
[3] = in vivo; cited from earlier work
neovascularization = test: Contemplated clinical cases: intravitreal or periocular CAI against neovascularization; format: in vivo; details: contemplated cases: 50 mcg intravitreal (Example 9); 200 mcg intravitreal then periocular sustained-release (Example 10)
Description: The following contemplated clinical cases of angiogenesis are presented as examples of methods of treatment and not as limitations. Other illustrations of treating systemic or localized angiogenesis are not presented, since the principles involved are similar, and will be apparent to the skilled reader based upon review of an individual's clinical manifestation and the preferred embodiments of the inventive compositions.
Person with Proliferative Diabetic Retinopathy and threshold high-risk characteristics presents with Vitreous Hemorrhage. The patient also has atrial fibrillation and ischemic cardiomyopathy that requires oral Coumadin. The patient is intolerant to topical Panretinal Photocoagulation. The INR measured at just less than 2. […] The patients Vitreous Hemorrhage slowly resolves and the patient is able to taper their Coumadin so that Panretinal Photocoagulation can be placed with retrobulbar anesthesia. Alternately, the patient remains on Coumadin and then is treated with a patch periocular insert of CAI to diminish the neovascularization.
Person with a two-week history of central scotoma. They developed a large disciform scar in the contralateral eye after several sessions of photodynamic therapy. On exam and fluorescein angiography is predominately classic subfoveal membrane is noted. […]

[4] = cited from earlier work; remark: listed apart in the source

Compound	serious side effect associated with clinical use ([1]; systemic administration, two cases described)	toxic effects observed in clinical studies ([1]; systemic oral dosage regimens)	plasma concentrations associated with unacceptable toxicity [2]	physiological tissue concentrations [3]	neovascular regression (neovascularization)	concentration detected in the vitreous cavity ([4]; single 5 mg peribulbar injection in humans)	delivery to the subretinal space, higher following subconjunctival injection ([4]; subconjunctival injection)
NC(=O)c1nnn(Cc2cc(Cl)c(C(=O)c3ccc(Cl)cc3)c(Cl)c2)c1N [CAI]	loss of vision	cerebellar ataxia, peripheral neuropathy and exacerbation of depression	above 100 micromolar	1-10 μM	some neovascular regression; also recorded: neovascular regression occurs		
C[C@@H]1C[C@H]2[C@@H]3CCC4=CC(=O)C=C[C@]4(C)[C@@]3(F)[C@@H](O)C[C@]2(C)[C@@]1(O)C(=O)CO [Dexamethasone]						13 ng/mL	10 fold
